Laboratory results published in US20230287415A1, “COMBINED THERAPY AGAINST CANCER” (FUNDACIÓ INSTITUT HOSPITAL DEL MAR D'INVESTIGACIONS …, priority 2020, published 2023).

How the values were obtained:
PyMT8119-OVA cells = assay: Cytotoxic T-cell lymphocyte (CTL) co-culture assay; type: cell-based, mouse; settings: OT-I CD8+ T-cells co-cultured with LCoR-OE tumor cells, in combination with anti-PD-L1
Source text: These paradoxical effects of LCoR, increased immunogenicity vs. increased PD-L1, poses LCoR expressing cells as largely responsive cells to anti-PD-L1 immune-checkpoint blockade therapy.
The transgenic OT-I mouse model strain with specific TCR for the OVA-derived peptide SIINFEKL MHC-I presented, were used to isolate splenocytes and CD8+T-cells that specifically recognize the SIINFEKL peptide (OVA 257-264). 9-week OT-I mice were sacrificed to obtain the spleen. Using mechanical dissociation of the spleen over a sterile 40 μm mesh screen. Total splenocytes were plated in six well plates and non-attached T cells were separated from adherent dendritic cells (DC) after 24 hours. CD8+T-cells were isolated by FACS.
Cytotoxic T-cell lymphocyte (CTL) co-culture assays. CD8+ T-cells were isolated from the spleen of OT-I mice and activated in culture with OVA peptide during 48 hours. Activated CD8+ T-cells were cocultured in 24-well plates with PyMT8119-OVA cells in different ratios of effector T-cells:tumor cells (E:T). After 5 days of coculture, T-cells and debris were removed, washed with media and stained with Sulforhodamine B (SRB) for measuring cytotoxicity (Vichai and Kirtikara 2006). […]

LCoR = assay: Doxorubicin treatment of breast cancer cells, LCoR mRNA by qRT-PCR; type: cell-based, human; settings: 360 nM during 48 hours, MDA-MB-231 cells
Experimental: Low dose treatment of breast cancer cells (360 nM during 48 hours) induced an increase of 2.3 fold change mRNA expression of LCoR in MDA-MB-231 cells.
Cell lines, culture conditions and treatments. All cell lines used in the study, including mammary epithelial cell lines (human HMLE), breast cancer cell lines (human MDA-MB-231 and mouse 4TO7; PyMT8119; AT3 cell lines) and other cell lines (HEK293T, H29 and HeLa), were cultured using the standard conditions according the American Type Culture Collection (ATCC) instructions. Doxorrubicin treatment was performed at 360 nM during 48 hours in MDA-MB-231 cells.
qRT-PCR analyses. Total mRNA was isolated using the RNAeasy isolation Kit (QIAGEN). mRNA reverse transcription was done using Applied Biosystems reactants and real-time quantitative PCR performed using the Power SYBR green PCR master mix (Applied Biosystems). All analyses were performed using an ABI 7900HT PCR machine. mRNA expression was normalized by the expression of GAPDH in each sample.

Compound | sensitivity to immune detection and killing (PyMT8119-OVA cells) | increase of mRNA expression of LCoR (LCoR) [fold change]
Atezolizumab | enhanced sensitivity to immune detection and killing | –
COc1cccc2c1C(=O)c1c(O)c3c(c(O)c1C2=O)C[C@@](O)(C(=O)CO)C[C@@H]3O[C@H]1C[C@H](N)[C@H](O)[C@H](C)O1 [Doxorubicin] | – | 2.3
